{"source": "patent US11844844B2", "about": "“Fusion protein comprising glutathione-s-transferase and protein having binding affinity target cell or target protein, and use thereof” (UNIST(ULSAN NATIONAL INSTITUTE OF SCIENCE AND TECHNOLOGY), priority 2017, dated 2023)", "test_system": "RAW 264.7 cells", "assay": "Cytotoxicity against macrophage, alamar blue", "format": "cell-based", "details": "CPT 0.01 to 2.5 μg/ml, 48 hr; PCSNs stored in 55% FBS 1 hr", "procedure": "In detail, CPT-loaded HER2-PCSNs were prepared and stored in a high concentration of serum protein environment of 55% FBS for 1 hr. Thereafter, the stored HER2-PCSNs were collected and washed, and then treated to RAW 264.7 cells at a CPT concentration of 0.01 μg/ml, 0.1 μg/ml, 0.25 μg/ml, 0.5 μg/ml, 1.0 μg/ml, or 2.5 μg/ml, followed by incubation for 48 hr. After completing incubation, cell viability was examined using an alamar blue dye. As a control for comparison of the cell killing effect, RAW 264.7 cells were treated with free CPT which was not loaded in nanoparticles, and cell viability thereof was examined.", "data": [{"smiles": "CC[C@@]1(O)C(=O)OCc2c1cc1n(c2=O)Cc2cc3ccccc3nc2-1", "note": "[free CPT, camptothecin]", "values": [{"measurement": "cell killing effect on macrophages (cell viability)", "value": "exhibited the cell killing effect on RAW 264.7 cells with increasing treatment concentrations"}]}]}
